Data reported in PubChem BioAssay AID1259407 (Chemical Carcinogenesis Research Information System (CCRIS), 2018).
Calls of active or inactive are those of the source. How the calls were made is not given here.

System: CCRIS mutagenicity, Ames/micronucleus/aberration tests
Assay: CCRIS mutagenicity studies
[1] = Test System: AMES SALMONELLA TYPHIMURIUM, Strain/Indicator: TA98, Metabolic Activation: NONE, Method: STANDARD PLATE
[2] = Test System: AMES SALMONELLA TYPHIMURIUM, Strain/Indicator: TA98, Metabolic Activation: RAT, LIVER, S-9, AROCLOR 1254, Method: STANDARD PLATE
[3] = Test System: AMES SALMONELLA TYPHIMURIUM, Strain/Indicator: TA100, Metabolic Activation: NONE, Method: STANDARD PLATE
[4] = Test System: AMES SALMONELLA TYPHIMURIUM, Strain/Indicator: TA100, Metabolic Activation: RAT, LIVER, S-9, AROCLOR 1254, Method: STANDARD PLATE
[5] = Test System: AMES SALMONELLA TYPHIMURIUM, Strain/Indicator: TA1535, Metabolic Activation: NONE, Method: STANDARD PLATE
[6] = Test System: AMES SALMONELLA TYPHIMURIUM, Strain/Indicator: TA1535, Metabolic Activation: RAT, LIVER, S-9, AROCLOR 1254, Method: STANDARD PLATE
[7] = Test System: AMES SALMONELLA TYPHIMURIUM, Strain/Indicator: TA1537, Metabolic Activation: NONE, Method: STANDARD PLATE
[8] = Test System: AMES SALMONELLA TYPHIMURIUM, Strain/Indicator: TA1537, Metabolic Activation: RAT, LIVER, S-9, AROCLOR 1254, Method: STANDARD PLATE
[9] = Test System: AMES SALMONELLA TYPHIMURIUM, Strain/Indicator: TA1538, Metabolic Activation: NONE, Method: STANDARD PLATE
[10] = Test System: AMES SALMONELLA TYPHIMURIUM, Strain/Indicator: TA98, Metabolic Activation: RAT, LIVER, S-9, PHENOBARBITAL, Method: STANDARD PLATE
[11] = Test System: AMES SALMONELLA TYPHIMURIUM, Strain/Indicator: TA100, Metabolic Activation: RAT, LIVER, S-9, PHENOBARBITAL, Method: STANDARD PLATE

Row | SMILES | mutagenic call [1] | mutagenic call [2] | mutagenic call [3] | mutagenic call [4] | mutagenic call [5] | mutagenic call [6] | mutagenic call [7] | mutagenic call [8] | also measured
1 | CC1=CC(=O)CC(C)(C)C1 | inactive; negative | inactive; negative | inactive; negative | inactive; negative | inactive; negative | inactive; negative | inactive; negative | inactive; negative | mutagenic call (End Point: IN VITRO CHROMOSOMAL ABERRATIONS, Test System: CHINESE HAMSTER LUNG FIBROBLAST CELLS (CHL/IU), Metabolic Activation: RAT, LIVER, S-9, PHENOBARBITAL AND 5,6-BENZOFLAVONE): active; positive (structural changes); mutagenic call (End Point: IN VITRO CHROMOSOMAL ABERRATIONS, Test System: CHO CELLS, Metabolic Activation: NONE): inactive; negative; precipitation occurred at 1600 ug/ml; mutagenic call (End Point: IN VITRO CHROMOSOMAL ABERRATIONS, Test System: CHO CELLS, Metabolic Activation: RAT, LIVER, S-9, AROCLOR 1254): inactive; negative; mutagenic call (Test System: AMES SALMONELLA TYPHIMURIUM, Strain/Indicator: TA98, Metabolic Activation: HAMSTER, LIVER, S-9, AROCLOR 1254, Method: STANDARD PLATE): inactive; negative; mutagenic call (Test System: AMES SALMONELLA TYPHIMURIUM, Strain/Indicator: TA100, Metabolic Activation: HAMSTER, LIVER, S-9, AROCLOR 1254, Method: STANDARD PLATE): inactive; negative; mutagenic call (Test System: AMES SALMONELLA TYPHIMURIUM, Strain/Indicator: TA1535, Metabolic Activation: HAMSTER, LIVER, S-9, AROCLOR 1254, Method: STANDARD PLATE): inactive; negative; mutagenic call (Test System: AMES SALMONELLA TYPHIMURIUM, Strain/Indicator: TA1537, Metabolic Activation: HAMSTER, LIVER, S-9, AROCLOR 1254, Method: STANDARD PLATE): inactive; negative; mutagenic call (Test System: MOUSE LYMPHOMA, Strain/Indicator: L5178Y (TK+/TK-), Metabolic Activation: NONE, Method: MICROWELL): inactive; negative; mutagenic call (Test System: MOUSE LYMPHOMA, Strain/Indicator: L5178Y (TK+/TK-), Metabolic Activation: RAT, LIVER, S-9, AROCLOR 1242 AND AROCLOR 1254 (2:1), Method: SUSPENSION/PLATE): inactive; negative; mutagenic call (Test System: UDS RAT HEPATOCYTES, Strain/Indicator: BROMODEOXYURIDINE INCORP, Metabolic Activation: NONE, Method: FLOW CYTOMETRIC ANALYSIS): active; positive; mutagenic call (Test System: UDS RAT HEPATOCYTES, Strain/Indicator: THY INCORP, Metabolic Activation: NONE, Method: AUTORADIOGRAPHY): active; positive
2 | Cc1cc(N)c(C)cc1N | inactive; negative | active; positive | inactive; negative | inactive; negative | inactive; negative | inactive; negative | inactive; negative | inactive; negative | mutagenic call [9]: inactive; negative; mutagenic call (Test System: AMES SALMONELLA TYPHIMURIUM, Strain/Indicator: TA1538, Metabolic Activation: RAT, LIVER, S-9, AROCLOR 1254, Method: STANDARD PLATE): inactive; negative
3 | CCOP(=S)(OCC)SCn1c(=O)oc2cc(Cl)ccc21 | inactive; negative | inactive; negative | inactive; negative | inactive; negative |  |  |  |  | mutagenic call (Test System: AMES SALMONELLA TYPHIMURIUM, Strain/Indicator: TA97A, Metabolic Activation: NONE, Method: STANDARD PLATE): inactive; negative; mutagenic call (Test System: AMES SALMONELLA TYPHIMURIUM, Strain/Indicator: TA97A, Metabolic Activation: RAT, CECAL CELL FREE EXTRACT, Method: STANDARD PLATE): inactive; negative; mutagenic call (Test System: AMES SALMONELLA TYPHIMURIUM, Strain/Indicator: TA97A, Metabolic Activation: RAT, LIVER, S-9, AROCLOR 1254, Method: STANDARD PLATE): inactive; negative; mutagenic call (Test System: AMES SALMONELLA TYPHIMURIUM, Strain/Indicator: TA98, Metabolic Activation: RAT, CECAL CELL FREE EXTRACT, Method: STANDARD PLATE): inactive; negative; mutagenic call (Test System: AMES SALMONELLA TYPHIMURIUM, Strain/Indicator: TA100, Metabolic Activation: RAT, CECAL CELL FREE EXTRACT, Method: STANDARD PLATE): inactive; negative
4 | O=c1c2c(O)cccc2oc2c3c(cc(O)c12)O[C@H]1OCC[C@@H]31 |  |  |  |  |  |  |  |  | mutagenic call [10]: inactive; negative; mutagenic call [11]: inactive; negative
5 | CC(=O)Nc1cc2c(cc1[N+](=O)[O-])[nH]c1ccccc12 | active; positive |  | inactive; negative |  |  |  | inactive; negative |  | mutagenic call [10]: active; positive; mutagenic call [11]: inactive; negative; mutagenic call (Test System: AMES SALMONELLA TYPHIMURIUM, Strain/Indicator: TA1537, Metabolic Activation: RAT, LIVER, S-9, PHENOBARBITAL, Method: STANDARD PLATE): inactive; negative; mutagenic call [9]: active; positive; mutagenic call (Test System: AMES SALMONELLA TYPHIMURIUM, Strain/Indicator: TA1538, Metabolic Activation: RAT, LIVER, S-9, PHENOBARBITAL, Method: STANDARD PLATE): active; positive; mutagenic call (Test System: AMES SALMONELLA TYPHIMURIUM, Strain/Indicator: TA1977, Metabolic Activation: NONE, Method: STANDARD PLATE): inactive; negative; mutagenic call (Test System: AMES SALMONELLA TYPHIMURIUM, Strain/Indicator: TA1977, Metabolic Activation: RAT, LIVER, S-9, PHENOBARBITAL, Method: STANDARD PLATE): inactive; negative
6 | CC(=O)OC[C@@]1(O)CC23CC[C@@H]4c5ccoc5C=C[C@@]4(C)[C@@H]2CC[C@@H]1C3 |  |  |  |  |  |  |  |  | mutagenic call (Test System: AMES SALMONELLA TYPHIMURIUM, Strain/Indicator: TM677, Metabolic Activation: NONE, Method: PREINCUBATION): inactive; negative; mutagenic call (Test System: AMES SALMONELLA TYPHIMURIUM, Strain/Indicator: TM677, Metabolic Activation: RAT, LIVER, S-9, AROCLOR 1254, Method: PREINCUBATION): inactive; negative
7 | NC(=O)c1cccc2cccnc12 | inactive; negative | inactive; negative | inactive; negative | active; positive | inactive; negative | inactive; negative | inactive; negative | inactive; negative | 
